# Like-named read-outs stand apart in the source and are kept apart here.
# How the values were obtained:
# HUVEC cells = test: VEGF-induced HUVEC proliferation/viability assay (WST1); format: cell-based, human; conditions: for Inhibition of proliferation and survival of HUVECs: 30 ng/ml VEGF165, 0.5-100 μM, 96 hrs
# Protocol: Single donor HUVEC cells were purchased from Lonza (Breda, Netherlands). Cells were seeded at 5,000 cells per well in 96-well microtiterplates in EGM-2EV medium (Invitrogen). Upon adherence the cells were gently washed twice with PBS and starved overnight in EGM-2EV medium with reduced FBS content (0.1%; starvation medium).
# After 96 hrs, cell growth was quantified using the WST1 Rapid cell proliferation kit (Calbiochem), and was expressed in percentage of the control value (VEGF alone). Experiments were carried out in triplets.
# To further evaluate the anti-angiogenic potential of the present novel compounds, proliferation and survival of human umbilical vein endothelial cells (HUVECs) treated with VEGF and two compounds that were very active in the zebrafish model were assayed.
# P-glycoprotein (P-gp) [1] = target: T1, P-glycoprotein (P-gp) (Homo sapiens, UniProt P08183)
# Protocol: (§6) The intracellular accumulation of calcein inside the cells is measured by using FACS analysis. The points indicate mean values of fluorescent effect, vertical lines show standard error calculated on the base of two independent experiment replicates. The effect corresponds to a control of cells which were treated only with calcein.
# (§7) Test compounds were dissolved in DMSO as stock solutions and further dilutions were made with DMEM/HAM's F12 1:1 (Biochrom). […] A range of concentrations of test compound in a volume of 300-600 μL cell suspension were added, followed by a 15 min incubation at 37° C. Calcein-AM (300 μL) (MoBiTec, Göttingen, Germany) in DMEM/HAM's F12 1:1 was added to a final concentration of 1 μM and incubated for 30 min at 37° C.
# (§8) For the calcein-AM assay using flow cytometry, the cell density of suspensions in DMEM/Ham's F12 1:1 was 2.5×10^7 cells/ml.
# (§9) Gating on forward and side scatter in concert with propidium iodide staining allowed distinguishing live endothelial cells.
# (§10) Twenty thousand cells were sorted in each run, and data were processed and analyzed with CellQuest (Franklin Lakes, N.J., USA). All fluorescence signals were corrected for background fluorescence. Calcein-AM auto-hydrolysis was measured in control samples (n=6) without cells.
# zebrafish embryos = test: Tg(fli1:EGFP) zebrafish embryo in vivo angiogenesis assay; conditions: for Anti-angiogenic effect (in words): zebrafish embryos, concentration range; for Concentration at which intersomitic vessel (ISV) formation was suppressed: as low as, toxicity evident above
# Protocol: Tg(fli1:EGFP) zebrafish, which express enhanced green fluorescent protein (GFP) in their endothelial cells, were used as an in vivo model for angiogenesis. At 20 hours post-fertilization (hpf), zebrafish embryos (10 per well/condition) were bathed in fish media, containing a concentration range of each of the compounds or control. Compounds had been dissolved as stock solutions in DMSO, stored at room temperature, and serially diluted in fish media prior to use. The anti-angiogenic tyrosinase kinase inhibitor SU5416 (Pfizer), and a vehicle-alone control containing the maximum concentration of DMSO were used as controls in all experiments.
# In the first sets of experiments, a broad range of concentrations were used to identify the maximum tolerable dose, based on toxicity to the embryos, visualized directly by light microscopy. Subsequent experiments were performed a minimum of two times. Live analyses of the embryos were performed under light and fluorescence microscopy at 28 hpf and 48 hpf to monitor viability, overall morphology, and pattern of swimming. Angiogenesis was evaluated visually by fluorescence microscopy.
# The developmental growth and patterning of the dorsal aorta, posterior cardinal vein, intersomitic vessels (ISV), and vascular plexus (VP) were monitored, as was the heart rate, and blood flow.
# Eight compounds (4, 7, 8, 9, 10, 11, 12 and 15) were compared to artesunate for their anti-angiogenic potential using an in vivo zebrafish embryo model system (Table III blow). DMSO at concentrations of 0.5, 1, and 2% was used as vehicle control. No effects were observed on overall morphology, heart rate, blood flow, or angiogenesis in control embryos. The anti-angiogenic agent SU5416 was used as a positive control.
# P-glycoprotein (P-gp) [2] = target: T1, P-glycoprotein (P-gp); test: Calcein-AM assay with flow cytometry in CEM/ADR5000 cells; conditions: for EC max (intracellular calcein fluorescence compared to untreated controls) / EC50: CEM/ADR5000 cells, flow cytometry; for EC50: read-out: EC50 calcein-AM assay
# Protocol: as §6, §7, §8, §9, §10
# [3] = test system: CEM/ADR5000 leukemia cells (P-glycoprotein-overexpressing); test: XTT cytotoxicity assay, multidrug-resistant cells; format: cell-based, human; conditions: for Degree of resistance: CEM/ADR5000 versus CCRF-CEM
# Protocol: (§1) Multidrug-resistant, P-glycoprotein-overexpressing CEM/ADR5000 cells and their parental, drug-sensitive counterpart, CCRF-CEM cells were used. The cell lines were provided by Dr. Daniel Steinbach (University of Ulm, Ulm, Germany).
# (§2) Doxorubicin resistance of CEM/ADR5000 was maintained as described. […] The cell lines were maintained in RPMI medium (Life Technologies) supplemented with 10% FCS in a humidified 7% CO2 atmosphere at 37° C. Cells were passaged twice weekly. All experiments were done with cells in the logarithmic growth
# (§3) Cytotoxicity was assessed using the 2,3-bis[2-methoxy-4-nitro-5-sulfophenyl]-2H-tetrazolium-5-carboxanilide inner salt (XTT) assay kit (Roche, Indianapolis, Ind.), which measures the metabolic activity of viable cells. Toxicity of compounds was determined with the Cell Proliferation Kit II (Roche Diagnostics, Mannheim, Germany), according to the manufacturer's instructions.
# Fresh stock solutions of each compound were prepared in DMSO at a concentration of 100 mM, and a dilution series was prepared in DMEM. […] Marginal wells were filled with 100 μL of media to minimize evaporation. A row of wells with cells was left untreated and another row of wells with cells was treated with 1 μL DMSO, the latter serving as a solvent control. All studies were performed in duplicate, in a range of concentrations, and in two independent experiments with different batches of cells.
# (§4) The ligand binding module of Sigma plot software (version 10.0) was used for analysis.
# (§5) All compounds were tested both towards drug-sensitive CCRF-CEM leukemia cells and their multidrug-resistant subline, CEM/ADR5000.
# CCRF-CEM leukemia cells = test: XTT cytotoxicity assay, drug-sensitive cells; format: cell-based, human
# Protocol: as §1, §2, §3
# Fresh stock solutions of each compound were prepared in DMSO at a concentration of 100 mM, and a dilution series was prepared in DMEM. Cells were suspended at a final concentration of 1×10^5 cells/ml, and […] were aliquoted per well into a 96-well culture plate (Costar, Corning, USA). Marginal wells were filled with 100 μL of media to minimize evaporation. A row of wells with cells was left untreated and another row of wells with cells was treated with 1 μL DMSO, the latter serving as a solvent control. All studies were performed in duplicate, in a range of concentrations, and in two independent experiments with different batches of cells.
# as §4, §5
# [4] = test system: P-gp expressed in porcine capillaries; test: Transport of NBD-CSA into porcine brain capillary lumens (confocal microscopy); format: cell-based
# Text: Luminal P-gp was inhibited by a well-known selective P-gylcoprotein inhibitor, PSC-833.
# [5] = Homo sapiens, ADR5000, read-out: IC50 CEM/ADR5000
# [6] = multidrug-resistant CEM/ADR5000 cells, XTT, read-out: IC50 CEM/ADR5000
# T1 sequence (P08183 whole entry): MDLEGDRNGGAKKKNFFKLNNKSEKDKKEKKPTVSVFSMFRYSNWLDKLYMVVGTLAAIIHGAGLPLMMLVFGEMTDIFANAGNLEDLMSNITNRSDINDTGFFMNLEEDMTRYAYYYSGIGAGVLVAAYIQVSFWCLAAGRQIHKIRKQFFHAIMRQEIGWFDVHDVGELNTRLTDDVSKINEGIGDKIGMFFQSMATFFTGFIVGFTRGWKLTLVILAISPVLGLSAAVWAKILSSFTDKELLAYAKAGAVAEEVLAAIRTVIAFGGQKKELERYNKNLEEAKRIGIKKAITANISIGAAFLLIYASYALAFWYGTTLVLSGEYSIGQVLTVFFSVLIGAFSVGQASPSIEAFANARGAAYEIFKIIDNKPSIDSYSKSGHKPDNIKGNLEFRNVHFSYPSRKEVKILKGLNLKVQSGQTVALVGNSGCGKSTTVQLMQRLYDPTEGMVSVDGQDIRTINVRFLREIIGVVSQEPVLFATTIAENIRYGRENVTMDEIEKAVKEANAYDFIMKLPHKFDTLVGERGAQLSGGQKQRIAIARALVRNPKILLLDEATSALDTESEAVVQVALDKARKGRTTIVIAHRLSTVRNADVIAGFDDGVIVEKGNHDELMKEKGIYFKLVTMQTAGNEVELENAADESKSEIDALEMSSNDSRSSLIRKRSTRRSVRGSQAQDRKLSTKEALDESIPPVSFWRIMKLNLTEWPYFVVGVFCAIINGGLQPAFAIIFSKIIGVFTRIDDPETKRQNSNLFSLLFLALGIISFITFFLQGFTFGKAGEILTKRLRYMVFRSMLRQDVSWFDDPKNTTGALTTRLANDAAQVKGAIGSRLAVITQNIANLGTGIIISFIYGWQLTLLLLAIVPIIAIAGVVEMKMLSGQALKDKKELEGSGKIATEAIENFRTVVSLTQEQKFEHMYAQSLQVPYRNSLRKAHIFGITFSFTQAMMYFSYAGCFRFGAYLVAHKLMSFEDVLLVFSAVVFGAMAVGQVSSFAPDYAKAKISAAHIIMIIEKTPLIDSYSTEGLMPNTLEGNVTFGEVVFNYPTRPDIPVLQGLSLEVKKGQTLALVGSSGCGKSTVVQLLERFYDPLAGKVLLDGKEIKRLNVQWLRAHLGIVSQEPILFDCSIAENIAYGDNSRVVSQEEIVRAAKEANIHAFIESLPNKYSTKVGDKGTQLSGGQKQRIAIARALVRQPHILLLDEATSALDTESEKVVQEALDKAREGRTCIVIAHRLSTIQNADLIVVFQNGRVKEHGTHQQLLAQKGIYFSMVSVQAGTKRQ
compound,measurement,setting,value
"C[C@H]1[C@H](OC(=O)CCC(=O)O)O[C@@H]2O[C@@]3(C)CC[C@H]4[C@H](C)CC[C@@H]1[C@@]24OO3 [Artesunate, artesunate, reference compound]",Behaviour in cell culture medium,HUVEC cells; starvation medium EGM-2EV,precipitation from the cell culture medium
same,P-gp inhibition judged by calcein fluorescence,P-glycoprotein (P-gp) [1],do not act as P-gp inhibitors
same,Dead = number of dead embryos up to 48 hpf,"zebrafish embryos; 25 μg/ml, N = 20 embryos",1
same,Vasc. Defects = number of surviving embryos with vascular defects,"zebrafish embryos; 25 μg/ml, N = 20 embryos",0
same,Dead = number of dead embryos up to 48 hpf,"zebrafish embryos; 50 μg/ml, N = 20 embryos",1
same,Vasc. Defects = number of surviving embryos with vascular defects,"zebrafish embryos; 50 μg/ml, N = 20 embryos",2
same,Dead = number of dead embryos up to 48 hpf,"zebrafish embryos; 100 μg/ml, N = 20 embryos",1
same,Vasc. Defects = number of surviving embryos with vascular defects,"zebrafish embryos; 100 μg/ml, N = 20 embryos",6
same,Dead = number of dead embryos up to 48 hpf,"zebrafish embryos; 200 μg/ml, N = 10 embryos",1
same,Vasc. Defects = number of surviving embryos with vascular defects,"zebrafish embryos; 200 μg/ml, N = 10 embryos",9
same,Anti-angiogenic effect (in words),zebrafish embryos,dose-dependent anti-angiogenic effects
"C[C@@H]1CC[C@H]2[C@@H](C)C(=O)O[C@@H]3O[C@@]4(C)CC[C@@H]1[C@]32OO4 [Compound 1, artemisinin]",P-gp inhibition judged by calcein fluorescence,"P-glycoprotein (P-gp) [2]; CCRF-CEM and CEM/ADR5000 cells, FIG. 5",do not act as P-gp inhibitors
same,EC max (intracellular calcein fluorescence compared to untreated controls),P-glycoprotein (P-gp) [2],114.1 ± 2.85^ %
same,IC50,[3]; [5],94.9 ± 30.5 µM
same,IC50,CCRF-CEM leukemia cells; Homo sapiens,148 ± 16.6 µM
"C[C@@H]1CC[C@H]2[C@@H](C)CO[C@@H]3O[C@@]4(C)CC[C@@H]1[C@]32OO4 [Compound 3, Deoxoartemisinin]",Degree of resistance,[3],0.49
same,IC50,[3]; [5],117 ± 8.2 µM
same,IC50,CCRF-CEM leukemia cells; Homo sapiens,241 ± 50.7 µM
"CC1=CO[C@@H]2O[C@@]3(C)CC[C@H]4[C@H](C)CC[C@@H]1[C@@]24OO3 [Compound 4, Anhydrodihydroartemisinin]",IC50,[3]; [5],33.6 ± 0.68 µM
same,Dead = number of dead embryos up to 48 hpf,"zebrafish embryos; 50 μg/ml, N = 10 embryos",2
same,Vasc. Defects = number of surviving embryos with vascular defects,"zebrafish embryos; 50 μg/ml, N = 10 embryos",0
same,Dead = number of dead embryos up to 48 hpf,"zebrafish embryos; 75 μg/ml, N = 10 embryos",5
same,Other defects observed,"zebrafish embryos; 75 μg/ml, N = 10 embryos","B, E"
same,Vasc. Defects = number of surviving embryos with vascular defects,"zebrafish embryos; 75 μg/ml, N = 10 embryos",0
same,IC50,CCRF-CEM leukemia cells; Homo sapiens,83.4 ± 7.51 µM
"CC(=O)OC1O[C@@H]2O[C@@]3(C)CC[C@H]4[C@H](C)CCC([C@H]1C)[C@@]24OO3 (stereo partly shown) [Compound 7, 10-Dihydroartemisinyl acetate]",Degree of resistance,[3],12.83
same,Inhibition of proliferation and survival of HUVECs,HUVEC cells,inhibited the proliferation and survival of HUVECs significantly stronger than artemisinin
same,Anti-angiogenic effect (in words),zebrafish embryos,dose-dependent anti-angiogenic effects
"C[C@H]1C(OC(=O)C(Cl)Cl)O[C@@H]2O[C@@]3(C)CC[C@H]4[C@H](C)CCC1[C@@]24OO3 (stereo partly shown) [Compound 8, 10-Dihydroartemisinyl 2′,2′-Dichloroacetate]",Inhibition of luminal P-gp (NBD-CSA in capillary lumen),[4],almost empty lumen
same,Anti-angiogenic effect (in words),zebrafish embryos,dose-dependent anti-angiogenic effects
"CCCC(=O)OC1O[C@@H]2O[C@@]3(C)CC[C@H]4[C@H](C)CCC([C@H]1C)[C@@]24OO3 (stereo partly shown) [Compound 9, 10-Dihydroartemisinyl Butyrate]",Degree of resistance,[3],0.51
same,Dead = number of dead embryos up to 48 hpf,"zebrafish embryos; 25 μg/ml, N = 30 embryos",17
same,Concentration at which intersomitic vessel (ISV) formation was suppressed,zebrafish embryos,1 µg/mL
same,Anti-angiogenic effect (in words),zebrafish embryos,dose-dependent anti-angiogenic effects
CC(C)C(=O)OC1O[C@@H]2O[C@@]3(C)CC[C@H]4[C@H](C)CCC([C@H]1C)[C@@]24OO3 (stereo partly shown) [Compound 10],Degree of resistance,[3],22.46
same,Inhibition of proliferation and survival of HUVECs,HUVEC cells,inhibited the proliferation and survival of HUVECs significantly stronger than artemisinin
same,Anti-angiogenic effect (in words),zebrafish embryos,dose-dependent anti-angiogenic effects
"CCCC(CCC)C(=O)OC1O[C@@H]2O[C@@]3(C)CC[C@H]4[C@H](C)CCC([C@H]1C)[C@@]24OO3 (stereo partly shown) [Compound 11, 10-Dihydroartemisinyl 2′-Propylpentanoate]",Degree of resistance,[3],1.23
same,Dead = number of dead embryos up to 48 hpf,"zebrafish embryos; 10 μg/ml, N = 30 embryos",22
same,Concentration at which intersomitic vessel (ISV) formation was suppressed,zebrafish embryos,1 µg/mL
same,Anti-angiogenic effect (in words),zebrafish embryos,dose-dependent anti-angiogenic effects
"C[C@H]1C(OC(=O)C(C)(C)C)O[C@@H]2O[C@@]3(C)CC[C@H]4[C@H](C)CCC1[C@@]24OO3 (stereo partly shown) [Compound 12, 10-Dihydroartemisinyl 2′,2′-Dimethylpropianate]",Degree of resistance,[3],2.65
same,Dead = number of dead embryos up to 48 hpf,"zebrafish embryos; 1.0 μg/ml, N = 10 embryos",0
same,Anti-angiogenic effect (in words),zebrafish embryos,a specific anti-angiogenic effect was not observed
same,Toxicity to embryos (in words),"zebrafish embryos; zebrafish, in vivo",the most toxic at comparable doses
"C[C@H]1C(OC(=O)c2ccccc2)O[C@@H]2O[C@@]3(C)CC[C@H]4[C@H](C)CCC1[C@@]24OO3 (stereo partly shown) [Compound 13, 10-dihydroartemisinyl benzoate]",Degree of resistance,[3],7.79
C[C@H]1C(OC(=O)N(C)C)O[C@@H]2O[C@@]3(C)CC[C@H]4[C@H](C)CCC1[C@@]24OO3 (stereo partly shown) [Compound 14],Degree of resistance,[3],19.76
"CCC(C)OC1OC2OC3(C)CCC4C(C)CCC(C1C)C24OO3 (stereo not shown) [Compound 15, 10-(2′-Butyloxy)Dihydroartemisinin]",EC max (intracellular calcein fluorescence compared to untreated controls),P-glycoprotein (P-gp) [2],1180 ± 178.7%
same,EC50,P-glycoprotein (P-gp) [2],61.8 ± 9.62 µM
same,Degree of resistance,[3],0.47
same,IC50,[3]; [6],7.96 ± 3.76 µM
same,Inhibition of luminal P-gp (NBD-CSA in capillary lumen),[4],almost empty lumen
same,Dead = number of dead embryos up to 48 hpf,"zebrafish embryos; 1.0 μg/ml, N = 10 embryos",0
same,Vasc. Defects = number of surviving embryos with vascular defects,"zebrafish embryos; 1.0 μg/ml, N = 10 embryos",0
same,Dead = number of dead embryos up to 48 hpf,"zebrafish embryos; 10 μg/ml, N = 10 embryos",1
same,Vasc. Defects = number of surviving embryos with vascular defects,"zebrafish embryos; 10 μg/ml, N = 10 embryos",0
same,Dead = number of dead embryos up to 48 hpf,"zebrafish embryos; 25 μg/ml, N = 10 embryos",0
same,Vasc. Defects = number of surviving embryos with vascular defects,"zebrafish embryos; 25 μg/ml, N = 10 embryos",0
same,IC50,CCRF-CEM leukemia cells,16.7 ± 7.34 µM
"CC1CCC2C(C)C(SCCN)OC3OC4(C)CCC1C32OO4 (stereo not shown) [Compound 16, 10-Dihydroartemisinyl Thioethylamine]",EC max (intracellular calcein fluorescence compared to untreated controls),P-glycoprotein (P-gp) [2],1011 ± 106.3%
same,EC50,P-glycoprotein (P-gp) [2],27.2 ± 4.69 µM
same,Degree of resistance,[3],3.88
same,IC50,[3]; [6],3.34 ± 0.64 µM
same,IC50,CCRF-CEM leukemia cells,0.86 ± 0.19 µM
"C/C=C/C[C@@H](C)C(=O)[C@H]1C(=O)N[C@@H](C(C)C)C(=O)N(C)CC(=O)N(C)[C@@H](CC(C)C)C(=O)N[C@@H](C(C)C)C(=O)N(C)[C@@H](CC(C)C)C(=O)N[C@@H](C)C(=O)N[C@H](C)C(=O)N(C)[C@@H](CC(C)C)C(=O)N(C)[C@@H](CC(C)C)C(=O)N(C)[C@@H](C(C)C)C(=O)N1C [PSC-833, reference compound]",Inhibition of luminal P-gp (NBD-CSA in capillary lumen),[4],inhibited
"Cc1cc(C)c(/C=C2\C(=O)Nc3ccccc32)[nH]1 [SU5416, reference compound]",Formation of intersomitic vessels (ISVs) at 28 hpf,"zebrafish embryos; 10 μg/ml, 28 hpf",completely blocked
same,ISV sprouting at 48 hpf compared to control embryos,"zebrafish embryos; 10 μg/ml, 48 hpf",sprouted only minimally
